Among the test systems are UACC-62 melanoma; EKVX NSCLC; HOP-62 NSCLC; SK-MEL-28 melanoma; SW-620 colon; RPMI-8226 leukemia; OVCAR-3 ovarian; MDA-MB-435; DU-145 prostate.
Common to all, as to assay: DTP human tumour cell line panel, 48 h

Drawing on PubChem BioAssay (NCI), this text covers TGI and GI50 for 14 compounds.

As a reminder, the TGI is the concentration giving total growth inhibition. A low value points to more potent growth arrest. What is called GI50 is the concentration that inhibits growth by half.

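48-hour exposure; five concentrations; linearly interpolated endpoints. GI50: concentration for 50% inhibition of growth. The concentration for full growth arrest is given as TGI.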 Bounds are passed on as bounds.

With `NC1=NN(c2ccccc2)C(=O)C1/C(=N\NC(=O)c1cc2ccccc2cc1O)C(=O)Nc1cccc(C(F)(F)F)c1` (configuration not stated), the TGI in the test with UACC-62 melanoma, with EKVX NSCLC, with HOP-62 NSCLC, in the test with SK-MEL-28 melanoma, in the test with SW-620 colon and in the test on RPMI-8226 leukemia was above 100 µM each time. The compound further yielded a TGI with OVCAR-3 ovarian above 100 µM.
On to `CC(=O)[CH-]C(=O)c1ccccc1.CC(=O)[CH-]C(=O)c1ccccc1.CC[C@H](/C=C/C(C)[C@H]1CCC2[C@@H]3CC=C4C[C@@H]([O-])CC[C@]4(C)C3CC[C@@]21C)C(C)C.CC[O-].[Ti+4]` (some centres not stated), for which the GI50 in the test on UACC-62 melanoma, with EKVX NSCLC, in the test on HOP-62 NSCLC, with SK-MEL-28 melanoma, with SW-620 colon and with RPMI-8226 leukemia was above 100 µM each time. Besides, the GI50 in the test on OVCAR-3 ovarian is above 100 µM. In addition, the TGI with UACC-62 melanoma, in the test with EKVX NSCLC, in the test on HOP-62 NSCLC, in the test with SK-MEL-28 melanoma, in the test on SW-620 colon and with RPMI-8226 leukemia was above 100 µM each time. In the test with OVCAR-3 ovarian, this compound returned a TGI above 100 µM.
On to `CC(=O)[CH-]C(=O)c1ccccc1.CC(=O)[CH-]C(=O)c1ccccc1.CC1(C)OCC(C2OC3OC(C)(C)OC3C2[O-])O1.CC1(C)OCC(C2OC3OC(C)(C)OC3C2[O-])O1.[Ti+4]` (configuration not stated), for which the GI50 was 16.9 µM in the test with UACC-62 melanoma; 14.1 µM with EKVX NSCLC; 17.9 µM in the test on HOP-62 NSCLC; 14 µM in the test with SK-MEL-28 melanoma; 10.7 µM with SW-620 colon. The TGI in the test with UACC-62 melanoma came out at 39.6 µM; in the test with EKVX NSCLC, 30.1 µM; in the test on HOP-62 NSCLC it was 36.2 µM; in the test on SK-MEL-28 melanoma, 29.9 µM; in the test with SW-620 colon it was 29.7 µM.
Consider `CSCC[C@H](NC(=O)[C@H](CC(C)C)NC(=O)[C@@H](Cc1ccccc1)NC(=O)CNC(=O)[C@@H](NC(=O)[C@H](C)NC(=O)[C@H](Cc1c[nH]c2ccccc12)NC(=O)[C@H](CCC(N)=O)NC(=O)[C@H](N)CC(N)=O)C(C)C)C(N)=O`, for which the TGI in the test on UACC-62 melanoma, with EKVX NSCLC, in the test on HOP-62 NSCLC, in the test on SK-MEL-28 melanoma, with MDA-MB-435 and in the test with SW-620 colon was above 12.5 µM in each case. In addition, the TGI in the test with RPMI-8226 leukemia, in the test with DU-145 prostate and with OVCAR-3 ovarian was above 12.5 µM throughout.
In the case of `COc1cccc(NC(=O)C(C)(C)C)c1SSc1c(NC(=O)C(C)(C)C)cccc1OC`, the TGI in the test with UACC-62 melanoma is 45.4 µM; in the test on EKVX NSCLC, above 100 µM; with HOP-62 NSCLC, above 100 µM; with SK-MEL-28 melanoma it was above 57.9 µM; with SW-620 colon, 33.1 µM; in the test on RPMI-8226 leukemia, 51 µM. The compound further yielded a TGI in the test on OVCAR-3 ovarian above 100 µM.
Turning to `COC(=O)C(CC(C)=O)CS(=O)(=O)CC(=O)C(=O)Nc1cccc([N+](=O)[O-])c1` (configuration not stated), the TGI in the test with UACC-62 melanoma, in the test with EKVX NSCLC, with HOP-62 NSCLC, in the test on SK-MEL-28 melanoma, with SW-620 colon and with RPMI-8226 leukemia was above 100 µM throughout. In addition, in the test on OVCAR-3 ovarian, the TGI is above 100 µM.
In the case of `CN(C)CCC=C1c2ccccc2C(C)(C)c2ccccc21`, the GI50 was 11.6 µM in the test on UACC-62 melanoma; 14.4 µM in the test with EKVX NSCLC; 17.4 µM in the test on HOP-62 NSCLC; 2.05 µM in the test with SK-MEL-28 melanoma; 4.56 µM in the test on MDA-MB-435; 13.3 µM in the test with SW-620 colon. Moreover, the GI50 with RPMI-8226 leukemia is 2 µM; in the test with DU-145 prostate it was 14.3 µM; with OVCAR-3 ovarian, 15.2 µM. For the same compound, the TGI with UACC-62 melanoma worked out at 27 µM; in the test with EKVX NSCLC, 30 µM; in the test with HOP-62 NSCLC, 33.5 µM; in the test on SK-MEL-28 melanoma, 4.31 µM; with MDA-MB-435 it was 19.5 µM; in the test with SW-620 colon it was 26.2 µM. Further, the values for the TGI in the test with RPMI-8226 leukemia, in the test on DU-145 prostate and in the test with OVCAR-3 ovarian were 5.93 µM, 27.3 µM and 28.5 µM, respectively.
Regarding `Cc1cc(=O)n2c3c(c4c(cc13)c(CO)cc(=O)n4C)OC2`, the TGI in the test on UACC-62 melanoma is 25.9 µM; in the test on EKVX NSCLC, above 100 µM; in the test on HOP-62 NSCLC, 40.2 µM; with SK-MEL-28 melanoma it was 78.7 µM; in the test on SW-620 colon, above 100 µM; with RPMI-8226 leukemia it was above 100 µM. The compound also gave a TGI with OVCAR-3 ovarian of 40.1 µM.
For the compound `Cc1ccc(NC(=O)CC/C(CC(=O)C(C)(C)C)=N/NC(=O)C[N+](C)(C)C)cc1C`, the TGI with UACC-62 melanoma, with EKVX NSCLC, with HOP-62 NSCLC, with SK-MEL-28 melanoma, in the test on SW-620 colon and in the test on OVCAR-3 ovarian was above 100 µM in each case.
Turning to `CSc1ccc(OCC2OC2O)cc1` (configuration not stated), the TGI in the test with UACC-62 melanoma was above 100 µM; in the test with EKVX NSCLC, above 100 µM; in the test with HOP-62 NSCLC, above 100 µM; with SW-620 colon, above 30.7 µM; in the test with RPMI-8226 leukemia it was 99.5 µM; in the test on OVCAR-3 ovarian, above 100 µM.
As for `O=C(N/C(=C\c1ccc(/C=C(\NC(=O)c2ccccc2)c2nc3cc(Cl)ccc3[nH]2)cc1)c1nc2cc(Cl)ccc2[nH]1)c1ccccc1`, the TGI in the test on UACC-62 melanoma was 65 µM; in the test with EKVX NSCLC, 91.9 µM; in the test on HOP-62 NSCLC, above 100 µM; with SK-MEL-28 melanoma it was 53.8 µM; in the test with SW-620 colon it was above 100 µM; in the test with RPMI-8226 leukemia, 25.4 µM. Further, in the test with OVCAR-3 ovarian, the TGI was above 100 µM.
As for `Cn1c(=O)c2ccc(-c3ccc(Br)cc3)nc2n(C)c1=O`, the TGI in the test on UACC-62 melanoma, with EKVX NSCLC, in the test on HOP-62 NSCLC, in the test with SK-MEL-28 melanoma, in the test on SW-620 colon and with RPMI-8226 leukemia was above 100 µM in each case. Also, the TGI in the test on OVCAR-3 ovarian was above 100 µM.
With `COC(=O)NN1C(C)=C(C(=O)OC)C2(C#N)C(C(=O)OC)=C(C)N(NC(=O)OC)C12N` (configuration not stated), the TGI in the test with UACC-62 melanoma, in the test on EKVX NSCLC, with HOP-62 NSCLC, in the test with SK-MEL-28 melanoma, with SW-620 colon and with RPMI-8226 leukemia was above 100 µM in each case.
For `Cc1cc(Cl)ccc1NC(=O)CCCC(=O)C1CCC/C1=N\NC(=O)CC#N` (configuration not stated), the TGI in the test on UACC-62 melanoma, in the test with EKVX NSCLC, in the test on SK-MEL-28 melanoma, in the test on SW-620 colon, with RPMI-8226 leukemia and in the test on OVCAR-3 ovarian was above 100 µM in each case.
